Test results reported in patent publication US7037929B1, “2-amino-thiazole derivatives, process for their preparation, and their use as antitumor agents” (Pharmacia & Upjohn S.p.A., priority 1998, dated 2006).
pKi: −log10 of the molar value.

Target: cdk2/cyclin A complex (Homo sapiens, UniProt P24941)
Test: inhibition assay of cdk2/Cyclin A activity (MultiScreen-PH phosphocellulose filter plate, 33P-ATP, histone H1)
Format: biochemical
Settings: ATP and histone H1 substrate concentrations varied; random bireactant system equation; read-out: inhibiting activity towards the cdk2/cyclin A complex (Ki)
Procedure: The inhibiting activity of putative cdk/cyclin inhibitors and the potency of selected compounds was determined through a method of assay based on the use of the MultiScreen-PH 96 well plate (Millipore), in which a phosphocellulose filter paper was placed at each well bottom allowing binding of positive charged substrate after a washing/filtration step.
When a radioactivity labelled phosphate moiety was transferred by the ser/threo kinase to the filter-bound histone, light emitted was measured in a scintillation counter. The inhibition assay of cdk2/Cyclin A activity was performed according to the following protocol:
Kinase reaction: 1.5 μM histone H1 substrate, 25 μM ATP (0. 5 μCi P^33γ-ATP), 30 ng Cyclin A/cdk2 complex, […] in a final volume of 100 μl buffer (TRIS HCl 10 mM pH 7.5, MgCl2 10 mM, 7.5 mM DTT) were added to each well of a 96 U bottom well plate. After 10 min at 37° C. incubation, reaction was stopped by 20 μl EDTA 120 mM.
Capture: 100 μl were transferred from each well to MultiScreen plate, to allow substrate binding to phosphocellulose filter. […]
Detection: filters were allowed to dry at 37° C., then 100 μl/well scintillant were added and ^33P labelled histone H1 was detected by radioactivity counting in the Top-Count instrument.
Results: data were analysed and expressed as % inhibition referred to total activity of enzyme (=100%). […]

pKi: 7.00
SMILES: CC(C)c1cnc(NC(=O)Cc2ccc(N(C)C)cc2)s1 [2-[4-(dimethylamino)phenyl]-N-(5-isopropyl-1,3-thiazol-2-yl)acetamide]
